Here are results for ten compounds from patent US7026304B2, “2-alkylated-cyclodextrin derivatives: reversal agents for drug-induced neuromuscular block” (Akzo Nobel N.V., priority 2001, dated 2006).

Like-named read-outs stand apart in the source and are kept apart here.

Experiment [1] deals with steady-state neuromuscular block induced by the muscle relaxant rocuronium bromide (Roc). In words: Reversal of neuromuscular blockade in anaesthetized guinea pigs in vivo. Set-up: species or system guinea pig. The procedure:
Reversal of Neuromuscular Blockade in Anaesthetized Guinea Pigs in vivo Male Dunkin-Hartley guinea pigs (bodyweight: 600–900 g) were anaesthetized by i.p. administration of 10 mg/kg pentobarbitone and 1000 mg/kg urethane. After tracheotomy, the animals were artificially ventilated using a Harvard small animal ventilator. A catheter was placed into the carotid artery for continuous monitoring of arterial blood pressure and the taking of blood samples for blood gas analysis. Heart rate was derived from the blood pressure signal. The sciatic nerve was stimulated (rectangular pulses of 0.5 ms duration at 10 s (0.1 Hz) intervals at a supramaximal voltage, using a Grass S88 Stimulator) and the force of M. gastrocnemius contractions was measured using a Grass FT03 force-displacement transducer. Contractions, blood pressure and heart rate were recorded on a multichannel Grass 7D recorder. Catheters were placed in both jugular veins. One catheter was used for the continuous infusion of a neuromuscular blocking agent. […] The other catheter was used for administration of increasing doses of the reversal agent. During continuous infusion of the neuromuscular blocking agent, single doses of increasing concentration of reversal agent were given.

Experiment [2] has the same test system. Conditions: anaesthetized guinea pigs, as already described in WO 01/12202, cited from earlier work.
Where [3] appears, read: anaesthetized guinea pigs, rocuronium bromide-induced steady-state block.
Setting [4] is: anaesthetized guinea pigs, rocuronium bromide-induced steady-state block, dose at which % max reversal was reached.
Setting [5] is: anaesthetized male Dunkin-Hartley guinea pigs, rocuronium bromide infusion to steady-state block of 85–90%, reversal agent i.v. in increasing doses.

As to `O=C([O-])c1ccc(CO[C@H]2[C@H]3O[C@H]4[C@H](O)[C@@H](OCc5ccc(C(=O)[O-])cc5)[C@@H](O[C@H]5[C@H](O)[C@@H](OCc6ccc(C(=O)[O-])cc6)[C@@H](O[C@H]6[C@H](O)[C@@H](OCc7ccc(C(=O)[O-])cc7)[C@@H](O[C@H]7[C@H](O)[C@@H](OCc8ccc(C(=O)[O-])cc8)[C@@H](O[C@H]8[C@H](O)[C@@H](OCc9ccc(C(=O)[O-])cc9)[C@@H](O[C@H]9[C@H](O)[C@@H](OCc%10ccc(C(=O)[O-])cc%10)[C@@H](O[C@H]%10[C@H](O)[C@@H](OCc%11ccc(C(=O)[O-])cc%11)[C@@H](O[C@@H]([C@@H]2O)[C@@H](CO)O3)O[C@@H]%10CO)O[C@@H]9CO)O[C@@H]8CO)O[C@@H]7CO)O[C@@H]6CO)O[C@@H]5CO)O[C@@H]4CO)cc1.[Na+].[Na+].[Na+].[Na+].[Na+].[Na+].[Na+].[Na+]` [Example 3, Octakis per-2-O-(4-carboxybenzyl)-γ-cyclodextrin, Na salt], in experiment [1] (setting [3]), the “% max reversal” value was 97%. Further, the “concentration at maximum reversal” value in experiment [1] (setting [4]) is reported as “(0.8) μmol · kg^−1”. In addition, the “ED50, dose producing 50% reversal of steady-state neuromuscular block” value (shortened to “ED50, dose producing 50% reversal”) in experiment [1] (setting [5]) was 0.20 µmol/kg.

Consider `OCCOCCSCCCO[C@H]1[C@H]2O[C@H]3[C@H](O)[C@@H](OCCCSCCOCCO)[C@@H](O[C@H]4[C@H](O)[C@@H](OCCCSCCOCCO)[C@@H](O[C@H]5[C@H](O)[C@@H](OCCCSCCOCCO)[C@@H](O[C@H]6[C@H](O)[C@@H](OCCCSCCOCCO)[C@@H](O[C@H]7[C@H](O)[C@@H](OCCCSCCOCCO)[C@@H](O[C@H]8[C@H](O)[C@@H](OCCCSCCOCCO)[C@@H](O[C@@H]([C@@H]1O)[C@@H](CO)O2)O[C@@H]8CO)O[C@@H]7CO)O[C@@H]6CO)O[C@@H]5CO)O[C@@H]4CO)O[C@@H]3CO` [Example 10, Heptakis per-2-O-(9-hydroxy-7-oxa-4-thia-nonyl)-β-cyclodextrin], for which, in experiment [1] (setting [3]), the “% max reversal” value worked out at 72%. In addition, the “concentration at maximum reversal” value in experiment [1] (setting [4]) is “(12) μmol · kg^−1”. Besides, the “ED50, dose producing 50% reversal” value in experiment [1] (setting [5]) worked out at 5.6 µmol/kg.

Turning to “Octakis per-2-O-(3-carboxybenzyl)-γ-cyclodextrin, Na salt [Example 2]”, the “% max reversal” value in experiment [1] (setting [3]) turned out to be 104%. In experiment [1] (setting [4]), the “concentration at maximum reversal” value is “(4.8) μmol · kg^−1”. For the same compound, the “ED50, dose producing 50% reversal” value in experiment [1] (setting [5]) came out at 0.38 µmol/kg.

For `O=C([O-])CCSCCCO[C@H]1[C@H]2O[C@H]3[C@H](O)[C@@H](OCCCSCCC(=O)[O-])[C@@H](O[C@H]4[C@H](O)[C@@H](OCCCSCCC(=O)[O-])[C@@H](O[C@H]5[C@H](O)[C@@H](OCCCSCCC(=O)[O-])[C@@H](O[C@H]6[C@H](O)[C@@H](OCCCSCCC(=O)[O-])[C@@H](O[C@H]7[C@H](O)[C@@H](OCCCSCCC(=O)[O-])[C@@H](O[C@H]8[C@H](O)[C@@H](OCCCSCCC(=O)[O-])[C@@H](O[C@H]9[C@H](O)[C@@H](OCCCSCCC(=O)[O-])[C@@H](O[C@@H]([C@@H]1O)[C@@H](CO)O2)O[C@@H]9CO)O[C@@H]8CO)O[C@@H]7CO)O[C@@H]6CO)O[C@@H]5CO)O[C@@H]4CO)O[C@@H]3CO.[Na+].[Na+].[Na+].[Na+].[Na+].[Na+].[Na+].[Na+]` [Example 6, Octakis per-2-O-(6-carboxy-4-thia-hexyl)-γ-cyclodextrin, Na salt], in experiment [1] (guinea pig, in vivo), the “% max reversal” value was 86% and the “concentration at maximum reversal” value is reported as “(16) μmol · kg^−1”. Further, in experiment [1] (guinea pig, in vivo, iv), the “ED50, dose producing 50% reversal” value came out at 3.4 µmol/kg.

For `OCC(O)CSCCCO[C@H]1[C@H]2O[C@H]3[C@H](O)[C@@H](OCCCSCC(O)CO)[C@@H](O[C@H]4[C@H](O)[C@@H](OCCCSCC(O)CO)[C@@H](O[C@H]5[C@H](O)[C@@H](OCCCSCC(O)CO)[C@@H](O[C@H]6[C@H](O)[C@@H](OCCCSCC(O)CO)[C@@H](O[C@H]7[C@H](O)[C@@H](OCCCSCC(O)CO)[C@@H](O[C@H]8[C@H](O)[C@@H](OCCCSCC(O)CO)[C@@H](O[C@@H]([C@@H]1O)[C@@H](CO)O2)O[C@@H]8CO)O[C@@H]7CO)O[C@@H]6CO)O[C@@H]5CO)O[C@@H]4CO)O[C@@H]3CO` (stereo partly drawn) [Example 9, Heptakis per-2-O-(6,7-dihydroxy-4-thia-heptyl)-β-cyclodextrin], the “% max reversal” value in experiment [1] (setting [3]) is given as 93%. In addition, the “concentration at maximum reversal” value in experiment [1] (setting [4]) is reported as “(6.4) μmol · kg^−1”. In experiment [1] (setting [5]), the “ED50, dose producing 50% reversal” value was 1.10 µmol/kg.

On to `O=C([O-])c1ccccc1CO[C@H]1[C@H]2O[C@H]3[C@H](O)[C@@H](OCc4ccccc4C(=O)[O-])[C@@H](O[C@H]4[C@H](O)[C@@H](OCc5ccccc5C(=O)[O-])[C@@H](O[C@H]5[C@H](O)[C@@H](OCc6ccccc6C(=O)[O-])[C@@H](O[C@H]6[C@H](O)[C@@H](OCc7ccccc7C(=O)[O-])[C@@H](O[C@H]7[C@H](O)[C@@H](OCc8ccccc8C(=O)[O-])[C@@H](O[C@H]8[C@H](O)[C@@H](OCc9ccccc9C(=O)[O-])[C@@H](O[C@H]9[C@H](O)[C@@H](OCc%10ccccc%10C(=O)[O-])[C@@H](O[C@@H]([C@@H]1O)[C@@H](CO)O2)O[C@@H]9CO)O[C@@H]8CO)O[C@@H]7CO)O[C@@H]6CO)O[C@@H]5CO)O[C@@H]4CO)O[C@@H]3CO.[Na+].[Na+].[Na+].[Na+].[Na+].[Na+].[Na+].[Na+]` [Example 4, Octakis per-2-O-(2-carboxybenzyl)-γ-cyclodextrin, Na salt], for which the “% max reversal” value in experiment [1] (setting [3]) is on record as 84%. The “concentration at maximum reversal” value in experiment [1] (setting [4]) is given as “(15) μmol · kg^−1”. Further, the “ED50, dose producing 50% reversal” value in experiment [1] (setting [5]) was 3.4 µmol/kg.

Take `O=C([O-])c1ccc(CO[C@H]2[C@H]3O[C@H]4[C@H](O)[C@@H](O)[C@@H](O[C@H]5[C@H](O)[C@@H](O)[C@@H](O[C@H]6[C@H](O)[C@@H](O)[C@@H](O[C@H]7[C@H](O)[C@@H](O)[C@@H](O[C@H]8[C@H](O)[C@@H](O)[C@@H](O[C@H]9[C@H](O)[C@@H](O)[C@@H](O[C@H]%10[C@H](O)[C@@H](O)[C@@H](O[C@@H]([C@@H]2O)[C@@H](CO)O3)O[C@@H]%10CO)O[C@@H]9CO)O[C@@H]8CO)O[C@@H]7CO)O[C@@H]6CO)O[C@@H]5CO)O[C@@H]4CO)cc1.[Na+]` [Example 5, Mono-2-O-(4-carboxybenzyl)-γ-cyclodextrin sodium salt]: the “% max reversal” value in experiment [1] (setting [3]) was 96%. The “concentration at maximum reversal” value in experiment [1] (setting [4]) is listed as “(2.6) μmol · kg^−1”. The “ED50, dose producing 50% reversal” value in experiment [1] (setting [5]) came out at 0.25 µmol/kg.

Consider `OC[C@H]1O[C@@H]2O[C@H]3[C@H](O)[C@@H](O)[C@@H](O[C@H]4[C@H](O)[C@@H](O)[C@@H](O[C@H]5[C@H](O)[C@@H](O)[C@@H](O[C@H]6[C@H](O)[C@@H](O)[C@@H](O[C@H]7[C@H](O)[C@@H](O)[C@@H](O[C@H]8[C@H](O)[C@@H](O)[C@@H](O[C@H]1[C@H](O)[C@H]2O)O[C@@H]8CO)O[C@@H]7CO)O[C@@H]6CO)O[C@@H]5CO)O[C@@H]4CO)O[C@@H]3CO` [β-cyclodextrin], for which the “ED50, dose producing 50% reversal” value in experiment [2] (parent cyclodextrins for comparison) was 20 µmol/kg. For the same compound, in experiment [2] (parent cyclodextrins), the “% max reversal” value is 93% and the “dose at maximum reversal” value was “(113) μmol · kg^−1”.

On to `O=S(=O)([O-])CCSCCCO[C@H]1[C@H]2O[C@H]3[C@H](O)[C@@H](OCCCSCCS(=O)(=O)[O-])[C@@H](O[C@H]4[C@H](O)[C@@H](OCCCSCCS(=O)(=O)[O-])[C@@H](O[C@H]5[C@H](O)[C@@H](OCCCSCCS(=O)(=O)[O-])[C@@H](O[C@H]6[C@H](O)[C@@H](OCCCSCCS(=O)(=O)[O-])[C@@H](O[C@H]7[C@H](O)[C@@H](OCCCSCCS(=O)(=O)[O-])[C@@H](O[C@H]8[C@H](O)[C@@H](OCCCSCCS(=O)(=O)[O-])[C@@H](O[C@H]9[C@H](O)[C@@H](OCCCSCCS(=O)(=O)[O-])[C@@H](O[C@@H]([C@@H]1O)[C@@H](CO)O2)O[C@@H]9CO)O[C@@H]8CO)O[C@@H]7CO)O[C@@H]6CO)O[C@@H]5CO)O[C@@H]4CO)O[C@@H]3CO.[Na+].[Na+].[Na+].[Na+].[Na+].[Na+].[Na+].[Na+]` [Example 8, Octakis per-2-O-(6-sulfo-4-thia-hexyl)-γ-cyclodextrin, Na salt], for which the “% max reversal” value in experiment [1] (setting [3]) is 85%. For the same compound, the “concentration at maximum reversal” value in experiment [1] (setting [4]) was “(4.5) μmol · kg^−1”. The “ED50, dose producing 50% reversal” value in experiment [1] (setting [5]) was 1.4 µmol/kg.

For the compound `O=C([O-])CSCCCO[C@H]1[C@H]2O[C@H]3[C@H](O)[C@@H](OCCCSCC(=O)[O-])[C@@H](O[C@H]4[C@H](O)[C@@H](OCCCSCC(=O)[O-])[C@@H](O[C@H]5[C@H](O)[C@@H](OCCCSCC(=O)[O-])[C@@H](O[C@H]6[C@H](O)[C@@H](OCCCSCC(=O)[O-])[C@@H](O[C@H]7[C@H](O)[C@@H](OCCCSCC(=O)[O-])[C@@H](O[C@H]8[C@H](O)[C@@H](OCCCSCC(=O)[O-])[C@@H](O[C@H]9[C@H](O)[C@@H](OCCCSCC(=O)[O-])[C@@H](O[C@@H]([C@@H]1O)[C@@H](CO)O2)O[C@@H]9CO)O[C@@H]8CO)O[C@@H]7CO)O[C@@H]6CO)O[C@@H]5CO)O[C@@H]4CO)O[C@@H]3CO.[Na+].[Na+].[Na+].[Na+].[Na+].[Na+].[Na+].[Na+]` [Example 7, Octakis per-2-O-(5-carboxy-4-thia-pentyl)-γ-cyclodextrin, Na salt], the “% max reversal” value in experiment [1] (setting [3]) amounted to 91%. The “concentration at maximum reversal” value in experiment [1] (setting [4]) is listed as “(10) μmol · kg^−1”. In experiment [1] (setting [5]), the “ED50, dose producing 50% reversal” value stood at 1.12 µmol/kg.
